Source: ChEMBL document CHEMBL1134053, “Structure-activity studies of 5-substituted pyridopyrimidines as adenosine kinase inhibitors” (Bioorg Med Chem Lett, 2001)

Legend:
Adenosine kinase [1] = biological target: T1, Adenosine kinase (Rattus norvegicus, UniProt Q64640); experiment: Inhibitory activity against cytosolic adenosine kinase by ADO phosphorylation assay
Adenosine kinase [2] = biological target: T1, Adenosine kinase; experiment: Inhibitory activity against intact cell adenosine kinase by ADO phosphorylation assay
Rattus norvegicus [3] = experiment: Tested for analgesic activity in vivo rat formalin nociception assay, administered by intraperitoneal injection to six animals at each dose. p<0.05; type: functional; conditions: ip
Rattus norvegicus [4] = experiment: Tested for analgesic activity in vivo rat carrageenan hyperalgesia assay, administered by intraperitoneal injection to six animals at each dose. p<0.05; type: functional; conditions: ip

T1 sequence (Q64640 whole entry): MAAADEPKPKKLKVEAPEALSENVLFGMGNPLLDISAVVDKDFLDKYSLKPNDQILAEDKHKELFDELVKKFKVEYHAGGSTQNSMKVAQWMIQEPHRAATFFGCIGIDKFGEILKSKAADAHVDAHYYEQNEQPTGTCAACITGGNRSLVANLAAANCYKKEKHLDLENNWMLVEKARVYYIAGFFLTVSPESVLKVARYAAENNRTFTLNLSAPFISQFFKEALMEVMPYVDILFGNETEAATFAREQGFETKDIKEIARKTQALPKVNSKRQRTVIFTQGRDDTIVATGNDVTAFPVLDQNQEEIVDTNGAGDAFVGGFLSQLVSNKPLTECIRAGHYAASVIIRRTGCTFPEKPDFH

IC50 (Adenosine kinase [1]) [nM]	IC50 (Adenosine kinase [2]) [nM]	SMILES	ED50 (Rattus norvegicus [3]) [µmol/kg]	ED50 (Rattus norvegicus [4]) [µmol/kg]
36	225	CN(C)c1ccc(-c2cc(-c3cccc(C(F)(F)F)c3)c3c(N)ncnc3n2)cc1	–	–
0.25	30	CC(c1ccccc1Br)c1cc(-c2ccc(N3CCOCC3)nc2)nc2ncnc(N)c12 (stereo not drawn)	10	10
9	115	CCC(CC)c1cc(-c2ccc(N3CCOCC3)nc2)nc2ncnc(N)c12	–	30
17	800	Nc1ncnc2nc(-c3ccc(N4CCOCC4)nc3)cc(C3CCOCC3)c12	30	> 2
47	> 1000	Cc1cc(-c2ccc(N(C)C)cc2)nc2ncnc(N)c12	–	–
21	304	C=CC(C)(C)c1cc(-c2ccc(N3CCOCC3)nc2)nc2ncnc(N)c12	–	–
0.23	102	CC1CC(C)CC(c2cc(-c3ccc(N4CCOCC4)nc3)nc3ncnc(N)c23)C1 (stereo not drawn)	> 30	30
0.17	33	Nc1ncnc2nc(-c3ccc(N4CCOCC4)nc3)cc(Cc3ccccc3Br)c12	30	3
85	400	COc1cccc(-c2cc(-c3ccc(N(C)C)cc3)nc3ncnc(N)c23)c1	–	–
30	430	Nc1ncnc2nc(-c3ccc(N4CCOCC4)nc3)cc(-c3ccc(Br)cc3)c12	30	–
11	550	CCCCc1cc(-c2ccc(N(C)C)cc2)nc2ncnc(N)c12	–	–
55	825	CN(C)c1ccc(-c2cc(C3CC3)c3c(N)ncnc3n2)cc1	–	–
62	315	Nc1ncnc2nc(-c3ccc(N4CCOCC4)nc3)cc(-c3cccnc3)c12	–	> 30
15	78	CN(C)c1ccc(-c2cc(-c3cccc(Cl)c3)c3c(N)ncnc3n2)cc1	–	–
77	850	CN(C)c1ccc(-c2cc(-c3cccc(C(N)=O)c3)c3c(N)ncnc3n2)cc1	–	–
562	> 1000	Nc1ncnc2nc(-c3ccc(N4CCOCC4)nc3)ccc12	–	–
35	325	CN(C)c1ccc(-c2cc(-c3cccc(C#N)c3)c3c(N)ncnc3n2)cc1	–	–

IC50 (Adenosine kinase [1]) [nM]	IC50 (Adenosine kinase [2]) [nM]	SMILES	ED50 (Rattus norvegicus [3]) [µmol/kg]	ED50 (Rattus norvegicus [4]) [µmol/kg]
8	470	CN(C)c1ccc(-c2cc(C3CCCCC3)c3c(N)ncnc3n2)cc1	–	–
733	> 10000	CN(C)c1ccc(-c2ccc3c(N)ncnc3n2)cc1	–	–
38	378	Nc1ncnc2nc(-c3ccc(N4CCOCC4)nc3)cc(-c3cc(Cl)ccc3Cl)c12	–	–
17	120	CN(C)c1ccc(-c2cc(-c3cccc(I)c3)c3c(N)ncnc3n2)cc1	–	–
5	130	Nc1ncnc2nc(-c3ccc(N4CCOCC4)nc3)cc(-c3cccc(Cl)c3Cl)c12	–	5
3	57	Nc1ncnc2nc(-c3ccc(N4CCOCC4)nc3)cc(C3CCCCC3)c12	20	10
10	488	Nc1ncnc2nc(-c3ccc(N4CCOCC4)nc3)cc(-c3ccco3)c12	–	–
13	550	Nc1ncnc2nc(-c3ccc(N4CCOCC4)nc3)cc(-c3ccsc3)c12	–	–
2	80	Nc1ncnc2nc(-c3ccc(N4CCOCC4)nc3)cc(C3CCCC3)c12	–	10
3	675	Nc1ncnc2nc(-c3ccc(N4CCOCC4)nc3)cc(-c3ccccc3Br)c12	10	30
9	96	Nc1ncnc2nc(-c3ccc(N4CCOCC4)nc3)cc(-c3cccc(Cl)c3)c12	10	20
44	353	CN(C)c1ccc(-c2cc(-c3cccc(O)c3)c3c(N)ncnc3n2)cc1	–	–
2	50	Nc1ncnc2nc(-c3ccc(N4CCOCC4)nc3)cc(-c3cccc(Br)c3)c12	25	0.6
400	–	CN(C)c1ccc(-c2cnc3c(N)ncnc3n2)cc1	–	–
7	470	CN(C)c1ccc(-c2cc(-c3ccccc3)c3c(N)ncnc3n2)cc1	–	–
5	170	CN(C)c1ccc(-c2cc(-c3cccc(Br)c3)c3c(N)ncnc3n2)cc1	0.7	30
